In paper PMC4669789, “Selective inhibition of HDAC8 decreases neuroblastoma growth in vitro and in vivo and enhances retinoic acid-mediated differentiation” (Cell Death & Disease, 2015):
pIC50: −log10 of the molar value.

What was measured:
Test in all cases: In vitro HDAC activity assay (Reaction Biology)
Type in all cases: biochemical
HDAC10 = target: T1, HDAC10 (Homo sapiens, UniProt Q969S8); details: cell-free; read-out: IC50 values of HDAC8 inhibitors, HDAC10
T1 sequence (Q969S8 1-323 limits assumed): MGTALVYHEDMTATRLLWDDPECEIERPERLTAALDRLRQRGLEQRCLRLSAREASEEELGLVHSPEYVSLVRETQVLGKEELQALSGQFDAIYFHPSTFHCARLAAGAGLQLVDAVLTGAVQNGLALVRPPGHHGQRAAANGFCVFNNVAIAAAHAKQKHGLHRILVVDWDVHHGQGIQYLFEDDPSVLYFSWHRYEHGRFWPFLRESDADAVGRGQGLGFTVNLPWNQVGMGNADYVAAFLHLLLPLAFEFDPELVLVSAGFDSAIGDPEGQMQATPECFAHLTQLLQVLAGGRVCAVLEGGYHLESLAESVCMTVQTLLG
Protocol: (§1) Peptide substrate was conjugated with AMC. […] The HDAC reaction was performed at 30 °C for 2 h before adding the developer reagent. The free AMC was detected with excitation of 360 nm and emission 460 nm at kinetic mode for 90 min. IC50 values were calculated with GraphPad Prism version 3.0a (GraphPad Software Inc., San Diego, CA, USA).

HDAC4 = HDAC4 (Homo sapiens, UniProt P56524); details: cell-free; read-out: IC50 values of HDAC8 inhibitors, HDAC4
Protocol: as §1

HDAC8 = target: T2, HDAC8 (Homo sapiens, UniProt Q9BY41); details: cell-free; read-out: IC50 values of HDAC8 inhibitors, HDAC8
T2 sequence (Q9BY41 14-324 limits assumed): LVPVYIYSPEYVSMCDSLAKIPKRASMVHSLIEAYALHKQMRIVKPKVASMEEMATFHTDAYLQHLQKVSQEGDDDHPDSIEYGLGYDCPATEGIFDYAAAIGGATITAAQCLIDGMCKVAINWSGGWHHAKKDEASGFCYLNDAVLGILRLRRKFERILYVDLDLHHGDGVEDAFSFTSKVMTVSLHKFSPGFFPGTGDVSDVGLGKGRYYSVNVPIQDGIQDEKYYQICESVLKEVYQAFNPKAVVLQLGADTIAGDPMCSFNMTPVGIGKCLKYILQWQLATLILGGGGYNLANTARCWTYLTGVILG
Protocol: as §1

HDAC9 = HDAC9 (Homo sapiens, UniProt Q9UKV0); details: cell-free; read-out: IC50 values of HDAC8 inhibitors, HDAC9
Protocol: as §1

HDAC5 = HDAC5 (Homo sapiens, UniProt Q9UQL6); details: cell-free; read-out: IC50 values of HDAC8 inhibitors, HDAC5
Protocol: as §1

HDAC2 = HDAC2 (Homo sapiens, UniProt Q92769); details: cell-free; read-out: IC50 values of HDAC8 inhibitors, HDAC2
Protocol: as §1

HDAC11 = target: T3, HDAC11 (Homo sapiens, UniProt Q96DB2); details: cell-free; read-out: IC50 values of HDAC8 inhibitors, HDAC11
T3 sequence (Q96DB2 14-326 limits assumed): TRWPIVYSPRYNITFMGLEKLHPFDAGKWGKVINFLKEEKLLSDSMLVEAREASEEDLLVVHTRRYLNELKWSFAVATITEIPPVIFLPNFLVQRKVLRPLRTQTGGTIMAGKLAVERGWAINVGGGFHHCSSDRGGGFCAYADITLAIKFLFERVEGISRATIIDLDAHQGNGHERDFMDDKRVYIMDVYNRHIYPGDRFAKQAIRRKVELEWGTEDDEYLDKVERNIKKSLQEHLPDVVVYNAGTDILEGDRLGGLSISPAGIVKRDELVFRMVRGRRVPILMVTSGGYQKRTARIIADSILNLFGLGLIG
Protocol: as §1

HDAC6 = target: T4, HDAC6 (Homo sapiens, UniProt Q9UBN7)
T4 sequence (Q9UBN7 1-1215): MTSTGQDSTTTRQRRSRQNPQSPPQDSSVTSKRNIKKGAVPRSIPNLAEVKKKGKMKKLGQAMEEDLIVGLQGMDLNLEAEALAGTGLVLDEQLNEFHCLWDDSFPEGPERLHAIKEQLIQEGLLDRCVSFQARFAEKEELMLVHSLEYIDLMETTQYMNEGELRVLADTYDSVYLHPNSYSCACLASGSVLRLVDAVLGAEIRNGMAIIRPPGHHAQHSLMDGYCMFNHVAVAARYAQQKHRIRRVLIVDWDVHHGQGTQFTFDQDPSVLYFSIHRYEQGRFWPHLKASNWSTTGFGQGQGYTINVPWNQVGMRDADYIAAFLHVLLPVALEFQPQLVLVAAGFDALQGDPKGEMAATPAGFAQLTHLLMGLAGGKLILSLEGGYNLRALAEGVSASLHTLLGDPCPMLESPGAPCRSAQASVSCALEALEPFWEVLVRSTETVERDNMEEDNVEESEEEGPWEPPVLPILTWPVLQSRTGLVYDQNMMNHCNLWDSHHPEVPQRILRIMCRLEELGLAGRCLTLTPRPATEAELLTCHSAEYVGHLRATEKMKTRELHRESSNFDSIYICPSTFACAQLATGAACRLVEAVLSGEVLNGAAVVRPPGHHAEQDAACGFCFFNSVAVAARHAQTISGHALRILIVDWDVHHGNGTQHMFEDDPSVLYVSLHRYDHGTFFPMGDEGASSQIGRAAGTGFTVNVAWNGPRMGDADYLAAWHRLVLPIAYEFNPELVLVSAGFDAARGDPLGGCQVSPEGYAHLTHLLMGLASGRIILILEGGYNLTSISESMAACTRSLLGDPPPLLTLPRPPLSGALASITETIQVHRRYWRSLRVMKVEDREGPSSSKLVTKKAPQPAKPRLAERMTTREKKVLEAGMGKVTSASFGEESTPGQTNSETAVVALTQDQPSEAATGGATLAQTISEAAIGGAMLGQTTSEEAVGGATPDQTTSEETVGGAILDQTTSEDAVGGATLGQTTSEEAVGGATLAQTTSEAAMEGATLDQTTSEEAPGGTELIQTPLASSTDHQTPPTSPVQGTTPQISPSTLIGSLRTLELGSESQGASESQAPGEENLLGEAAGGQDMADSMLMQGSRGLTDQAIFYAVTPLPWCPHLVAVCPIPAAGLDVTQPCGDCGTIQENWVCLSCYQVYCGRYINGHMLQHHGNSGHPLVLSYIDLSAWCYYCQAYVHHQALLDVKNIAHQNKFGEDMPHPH
Protocol: as §1

Sequence of HDAC4 (P56524 655-1084 limits assumed): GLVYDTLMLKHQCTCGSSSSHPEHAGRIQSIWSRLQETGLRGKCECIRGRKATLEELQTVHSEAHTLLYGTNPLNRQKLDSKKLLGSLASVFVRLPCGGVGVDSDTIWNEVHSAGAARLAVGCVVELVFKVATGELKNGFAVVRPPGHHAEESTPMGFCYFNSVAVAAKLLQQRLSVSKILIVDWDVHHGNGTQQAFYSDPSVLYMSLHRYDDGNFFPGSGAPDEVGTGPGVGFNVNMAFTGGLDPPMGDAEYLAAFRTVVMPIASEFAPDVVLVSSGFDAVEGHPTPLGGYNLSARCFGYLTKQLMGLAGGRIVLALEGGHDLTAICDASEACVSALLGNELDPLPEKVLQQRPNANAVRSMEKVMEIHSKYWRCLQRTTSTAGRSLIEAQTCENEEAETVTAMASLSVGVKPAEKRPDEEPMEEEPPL
Sequence of HDAC9 (Q9UKV0 631-978 limits assumed): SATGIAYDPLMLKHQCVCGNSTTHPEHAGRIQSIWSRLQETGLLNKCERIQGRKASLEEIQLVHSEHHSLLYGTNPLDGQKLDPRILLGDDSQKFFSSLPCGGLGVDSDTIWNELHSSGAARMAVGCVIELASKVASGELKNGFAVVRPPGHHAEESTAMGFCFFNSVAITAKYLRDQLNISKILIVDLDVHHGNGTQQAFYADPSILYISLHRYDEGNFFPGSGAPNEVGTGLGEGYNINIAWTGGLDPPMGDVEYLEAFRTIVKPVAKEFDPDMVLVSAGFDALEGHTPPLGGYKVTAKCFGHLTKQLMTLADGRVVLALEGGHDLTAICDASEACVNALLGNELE
Sequence of HDAC5 (Q9UQL6 684-1028 limits assumed): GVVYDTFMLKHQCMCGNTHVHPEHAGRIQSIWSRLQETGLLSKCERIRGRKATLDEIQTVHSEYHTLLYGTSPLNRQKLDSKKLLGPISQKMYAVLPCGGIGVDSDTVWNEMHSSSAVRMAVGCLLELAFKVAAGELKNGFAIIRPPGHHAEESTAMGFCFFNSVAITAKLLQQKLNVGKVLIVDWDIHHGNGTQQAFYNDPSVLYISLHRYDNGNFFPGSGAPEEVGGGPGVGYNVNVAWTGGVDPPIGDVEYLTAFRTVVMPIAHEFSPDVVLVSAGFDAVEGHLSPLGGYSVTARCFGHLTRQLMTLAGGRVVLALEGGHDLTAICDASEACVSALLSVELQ
Sequence of HDAC2 (Q92769 9-322 limits assumed): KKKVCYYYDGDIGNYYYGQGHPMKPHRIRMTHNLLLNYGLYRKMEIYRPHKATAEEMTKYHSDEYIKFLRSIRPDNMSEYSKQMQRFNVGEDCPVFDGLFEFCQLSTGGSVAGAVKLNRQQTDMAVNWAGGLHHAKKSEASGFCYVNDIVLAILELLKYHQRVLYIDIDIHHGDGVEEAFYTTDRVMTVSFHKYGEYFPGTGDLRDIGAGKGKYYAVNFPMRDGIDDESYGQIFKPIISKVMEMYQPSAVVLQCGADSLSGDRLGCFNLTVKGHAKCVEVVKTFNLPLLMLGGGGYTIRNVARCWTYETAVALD

In the case of `O=C(NO)c1cccc2ccccc12` [Cpd2, 1-naphthohydroxamic acid], the pIC50 (HDAC10) was < 4.12, the pIC50 (HDAC4) was < 4.12 and the pIC50 (HDAC8) was 4.47. The pIC50 (HDAC9) was < 4.12, the pIC50 (HDAC5) was < 4.12 and the pIC50 (HDAC2) was < 4.12. The pIC50 (HDAC11) was < 4.12, the pIC50 (HDAC6; cell-free, read-out: IC50 values of HDAC8 inhibitors, HDAC6) was 4.12 and the “concentrations above which HDAC6 and HDAC1 are potential off-target HDACs” value (HDAC6; from cell-free assays of HDACs 1–11) was “above 75 μM”.
